Reference: patent US9029414B2, “Triterpenoid compounds and methods of use thereof” (Biotechnology Research Corporation, priority 2008, dated 2015)
pIC50, pKi: −log10 of the molar value.

Target: human MC4 receptor (Homo sapiens, UniProt P32245)
Test: Radioligand competition binding assay, MC4
Experimental: DA001 was evaluated against 109 receptor binding assays and 17 enzyme assays, comprising of selective, central and peripheral therapeutically-relevant targets. Radioligand competition assays were conducted whereby DA001 was tested at one concentration (10 μM) in duplicate. […] It could compete with the radioligand [^125I-NDP-alpha-melanocyte-stimulating hormone (α-MSH)] binding for MC1 and MC4 but not MC3 and MC5 nor the related family, the melanin concentrating hormone receptors (MCH1 and MCH2).
To determine the IC50 for DA001 to inhibit α-MSH binding on MC1 and MC4 receptor, the compound was further characterized by a dose-dependent study. DA001 was evaluated with 8 concentrations on MC1 and MC4 receptor binding assays.
The specific ligand binding to the receptors is defined as the difference between the total binding and the nonspecific binding determined in the presence of an excess of unlabelled ligand. The results are expressed as a percent of control specific binding [(measured specific binding/control specific binding)×100] and as a percent inhibition of control specific binding {100−[(measured specific binding/control specific binding)×100]} obtained in the presence of DA001. The IC50 values (concentration causing a half-maximal inhibition of control specific binding) and Hill coefficients (nH) were determined by non-linear regression analysis of the competition curves generated with mean replicate values using Hill equation curve fitting (Y=D+[(A−D)/(1+(C/C50)nH)], where Y=specific binding, D=minimum specific binding, A=maximum specific binding, C=compound concentration, C50=IC50, and nH=slope factor). This analysis was performed using a software developed at Cerep (Hill software) and validated by comparison with data generated by the commercial software SigmaPlot® 4.0 for Windows® (© 1997 by SPSS Inc.).

human MC4 receptor, sequence (P32245 whole entry): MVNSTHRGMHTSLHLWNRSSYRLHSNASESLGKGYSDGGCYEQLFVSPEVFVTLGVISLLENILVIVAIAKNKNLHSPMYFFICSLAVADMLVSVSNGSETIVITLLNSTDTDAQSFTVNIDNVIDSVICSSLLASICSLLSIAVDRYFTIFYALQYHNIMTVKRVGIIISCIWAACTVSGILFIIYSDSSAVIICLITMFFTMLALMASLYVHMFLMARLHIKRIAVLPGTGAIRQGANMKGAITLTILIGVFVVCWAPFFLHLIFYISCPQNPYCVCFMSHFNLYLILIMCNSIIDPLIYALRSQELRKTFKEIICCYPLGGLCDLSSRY

**Q.** With C=C(C)[C@@H]1CC[C@]2(C(=O)O)CC[C@]3(C)C(CC[C@@H]4[C@@]5(C)CC[C@H](O[C@@H]6OC[C@H](O)[C@H](O)[C@H]6O[C@@H]6O[C@@H](C)[C@H](O)[C@@H](O)[C@H]6O)[C@@](C)(CO)[C@@H]5CC[C@]43C)[C@@H]12 (stereo partly drawn) [DA001, 3-O-[α-L-rhamnopyranosyl-(1→2)-α-L-arabinopyranosyl]-3,23-dihydroxy-20(29)-lupen-28-oic acid] as the compound, how does the pKi read?
**A.** Its pKi is 5.20.

**Q.** What about the pIC50 (8 concentrations) of the same compound?
**A.** The pIC50 was 5.17.

**Q.** And the nH (Hill coefficient)?
**A.** Its nH is 1.3.
